According to US4322351A (priority 1980, dated 1982):
Where a name gives a salt, the structure may show the parent alone.

Tests used:
[1] = tested on: Chinese hamster ovary cells; assay: standard mitotic inhibition test employing Chinese hamster ovary cells; type: cell-based
Description: The compounds of this invention are antimitotic compounds which adversely affects the growth of malignant cells. This activity is manifested in a standard mitotic inhibition test employing Chinese hamster ovary cells.

P388/V leukemia = assay: transplanted tumors in mice: P388/V leukemia; type: in vivo; conditions: dose and regimen not given, intraperitoneal
Description: (§1) The bases of this invention and their salts preparable by the processes disclosed herein are active in vivo against transplanted tumors in mice.
(§2) The following table--Table 1--gives the results of experiments in which mice bearing the susceptible transplanted tumor were treated with a compound of this invention. In the table, column 1 gives the name of the compound; column 2, the tumor used; column 3 the dosage; and column 4, the percent inhibition of tumor growth (I) or prolongation of life (PL). The following dosage regimens were employed: every day for 7 or 10 days after tumor inoculation; or every fourth day (three doses) starting at the third day after tumor inoculation.

755 adenocarcinoma = assay: transplanted tumors in mice: 755 adenocarcinoma; type: in vivo; conditions: intraperitoneal
Description: as §1, §2

B16 melanoma = assay: transplanted tumors in mice: B16 melanoma; type: in vivo; conditions: intraperitoneal; for percent Prolongation of life (PL): * = 1 or more indefinite survivors
Description: as §1, §2

P1534(J) = assay: transplanted tumors in mice: P1534(J) leukemia; type: in vivo; conditions: intraperitoneal
Description: as §1
as §2, with “The following dosage regimens were employed: every day for 7 or 10 days after tumor inoculation; or every fourth day (three doses) starting at the third day after tumor inoculation.” left out

tumor = conditions: background, U.S. Pat. No. 4,166,810 and Conrad et al.; cited from earlier work

Molecule: 4'-Acetylamino VLB
- mitotic index ([1]; 2.0×10^-2 mcg/ml): + (15-25% inhibition)

Molecule: CCC1(NC(C)=O)C[C@@H]2CN(CCc3c([nH]c4ccccc34)[C@@](C(=O)OC)(c3cc4c(cc3OC)N(C)[C@H]3[C@@](O)(C(=O)OC)[C@H](OC(C)=O)[C@]5(CC)C=CCN6CC[C@]43[C@@H]65)C2)C1 (some centres unmarked) [4'-acetylamino VLB sulfate]
- indefinite survivors (P388/V leukemia): * (1 or more indefinite survivors)
- percent Prolongation of life (PL) (P388/V leukemia; * = 1 or more indefinite survivors): 20%
- Percent Inhibition (I) of tumor growth (755 adenocarcinoma; 10 days, 1 mg/kg): 18%
- Percent Inhibition (I) of tumor growth (755 adenocarcinoma; 10 days, .5 mg/kg): 30%
- Percent Inhibition (I) of tumor growth (755 adenocarcinoma; 10 days, .75 mg/kg): 29%
- Percent Inhibition (I) of tumor growth (755 adenocarcinoma; 11 days, 3 mg/kg): 57%
- Percent Inhibition (I) or Prolongation (PL) column: toxicity (755 adenocarcinoma; 11 days, 6 mg/kg): Toxic
- Percent Inhibition (I) of tumor growth (755 adenocarcinoma; 11 days, .5 mg/kg): 33%
- indefinite survivors (B16 melanoma; 3 days, 1.5 mg/kg): * (1 or more indefinite survivors)
- percent Prolongation of life (PL) (B16 melanoma; 3 days, 1.5 mg/kg): 120%
- indefinite survivors (B16 melanoma; 3 days, 3 mg/kg): * (1 or more indefinite survivors)
- percent Prolongation of life (PL) (B16 melanoma; 3 days, 3 mg/kg): 74-201%
- indefinite survivors (B16 melanoma; .75 mg/kg): * (1 or more indefinite survivors)
- percent Prolongation of life (PL) (B16 melanoma; .75 mg/kg): 119%
- Percent Inhibition (I) of tumor growth (P1534(J); every third day, 5.0 mg/kg): 42%
- Percent Inhibition (I) of tumor growth (P1534(J); every third day, 7.5 mg/kg): 71%

Molecule: CCC1(NC(C)=O)C[C@@H]2CN(CCc3c([nH]c4ccccc34)[C@@](C(=O)OC)(c3cc4c(cc3OC)N(C)[C@H]3[C@@](O)(C(=O)OC)[C@H](O)[C@]5(CC)C=CCN6CC[C@]43[C@@H]65)C2)C1 (some centres unmarked) [4'-acetylamino-4-desacetyl VLB]
- Percent Inhibition (I) of tumor growth (B16 melanoma; 10 1.0 (regimen and dose mg/kg)): 58%
- Percent Inhibition (I) of tumor growth (B16 melanoma; .5 mg/kg): 23%
- Percent Inhibition (I) of tumor growth (B16 melanoma; .75 mg/kg): 44%
- Percent Inhibition (I) of tumor growth (P1534(J); 9.5-1.0 mg/kg): 2-11%
- inhibition at 2 µg/mL ([1]; Cricetulus griseus, CHO, read-out: mitotic index): 25 to 50%

Molecule: CC[C@]1(O)C[C@@H]2CN(CCc3c([nH]c4ccccc34)[C@@](C(=O)OC)(c3cc4c(cc3OC)N(C)[C@H]3[C@@](O)(C(N)=O)[C@H](O)[C@]5(CC)C=CCN6CC[C@]43[C@@H]65)C2)C1 [vindesine, 4-desacetyl VLB C-3 carboxamide]
- anti-tumor activity (tumor): very active
